According to publication PMC9558304, “Biomimetic Mineralization of Iron-Fumarate Nanoparticles for Protective Encapsulation and Intracellular Delivery of Proteins” (Chemistry of Materials, 2022):

Target: T1, horseradish peroxidase (HRP) (Armoracia rusticana, UniProt P00433)
T1 construct: gene PRXC1A
T1 sequence (P00433 31-338): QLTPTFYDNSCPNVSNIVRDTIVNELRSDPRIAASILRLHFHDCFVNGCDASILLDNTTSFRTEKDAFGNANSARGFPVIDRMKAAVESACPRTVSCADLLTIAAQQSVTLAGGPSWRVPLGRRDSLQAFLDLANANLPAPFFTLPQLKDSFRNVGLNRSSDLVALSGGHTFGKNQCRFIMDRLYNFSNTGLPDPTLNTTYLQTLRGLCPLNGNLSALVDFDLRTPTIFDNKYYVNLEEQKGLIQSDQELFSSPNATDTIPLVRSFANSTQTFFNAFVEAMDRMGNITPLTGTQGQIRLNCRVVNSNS
Assay: fluorescence plate reader ([…] nm), Michaelis-Menten fit
Assay type: biochemical
Conditions: free HRP added to degraded Fe-fum NPs (citrate buffer); 2500 μM H2O2; Amplex UltraRed 0-100 μM

## Amplex UltraRed
  Km: 182 ± 73 µM
